Like-named read-outs stand apart in the source and are kept apart here.
Key:
[1] = Dissolution test, USP 41 basket method, 1% SDS medium; type: physicochemical; details: 37 °C
Method: A dissolution test was conducted by the US Pharmacopeia 41 basket method (apparatus 1) using a dissolution tester (708-DS Dissolution apparatus, Agilent, USA). The samples of 89 mg conventional curcumin (equivalent to 72 mg curcumin) and 2180 mg formulated curcumin (equivalent to 72 mg curcumin) were placed into 900 mL of dissolution medium containing 1% sodium dodecyl sulfate (SDS) at 37 °C ± 0.5 °C, under a stirring speed of 100 ± 2 rpm. A 5 mL sample was withdrawn at each time interval (5, 10, 15, 20, 30, 45, and 60 minutes) and was mixed and filtered through a 0.45-µm pore membrane. Then, 2 mL of filtrate was diluted with mobile phase so that the total volume became 10 mL and subjected to HPLC analysis (Agilent 1260, USA). The HPLC program consisted of a mobile phase of tetrahydrofuran: 0.1% citric acid solution (4:6). The column used was 4.6 mm × 20 cm with 5-µm packing L1. The flow rate was 1 mL/minute, and the injection volume was 20 µL using a 420 nm wavelength detector. The percentages of curcumin dissolved from the conventional curcumin and pellets (formulated curcumin) into the medium were calculated and compared.

[2] = Pharmacokinetic study after oral gavage, curcumin in rat plasma by LC/MS/MS; type: in vivo, male Sprague Dawley (SD) rats; details: 500 mg/kg, n = 5
Method: All animal treatment procedures followed the Guide for the Care and Use of Laboratory Animals (National Institutes of Health (NIH) publication, 85–23, revised 1996) as well as the Animal research: Reporting in vivo experiments (ARRIVE) guidelines, and were approved by the Animal Research Committee at National Yang-Ming University, Taipei, Taiwan, under Institutional Animal Care and Use Committees (IACUC) approval no: 990103. All surgeries and experimental procedure were carried out under anesthesia with all efforts to minimize animal suffering. Twelve male Sprague Dawley (SD) rats (270 ± 15 g body weight) were obtained from Bio-Lasco, Taipei, Taiwan. Water was provided ad libitum, regardless of administration route. All animals were acclimatized and quarantined in quarantine room of the Rosetta animal facility for about 1 week, and then transferred to feeding room. The humidity and temperature were well controlled as 30%–70% and 19–25 °C. The light and dark cycle was set as 12 h: 12 h. Food and drinking water were allowed ad libitum during housing. Rats were randomly divided into two groups treated with curcumin and formulated curcumin. […] A 300 μL blood sample was collected from the tail vein into a tube rinsed with heparin at 0, 0.25, 0.5, 1, 1.5, 2, 4, 6 h after oral administration. Plasma was obtained by centrifuging the blood sample at 4000 rpm for 10 minutes at 4 °C. The 10 μL plasma was mixed with 50 μL of the internal standard solution containing 0.1 ng/µL of agomelatine. The samples were vortexed and centrifuged at 13,000 rpm for 5 minutes. The 50 µL of supernatant was transferred to the 1.5 mL tube contained 50 µL solution of 25% acetonitrile and 0.1% acetic acid. After that, 50 μL of the solution was injected onto LC-MS system. Curcumin concentrations in the samples were determined by positive ion electrospray tandem mass spectrometry using multiple reaction monitoring (MRM). Separation of curcumin was conducted on a Cosmosil column (5C18-MS-IIPacked column, 120 Å, 5 µm, 4.6 mm I.D. x 150 mm; NACALAI TESQUE, Inc., Japan) with a mobile phase of acetonitrile-water-formic acid. […] Pharmacokinetic analysis was calculated using a non-compartmental model with the Phoenix WinNonlin® (Version 8.0) software. The area under the drug concentration-time curve (AUC) was used to measure the total amount of curcumin reaching the systemic circulation. The relative oral bioavailability (BA) of curcumin was calculated according to the following equation: […] The pharmacokinetic results were represented as the mean ± SD. Statistical analysis was performed by t test (SPSS version 10.0) to compare the differences between groups. The level of significance was set at p < 0.05.

Huh7 cells [3] = test: MTT proliferation and viability assay, Huh7; type: cell-based, human; details: for IC50: Homo sapiens; for cell viability: dose-dependent
Method: (§1) After incubation, the media were removed from the wells.

Mahlavu cells = test: MTT viability assay, Mahlavu; type: cell-based; details: 72 h (Figure 6B)
Method: (§2) Cells were seeded into a 96-well plate (1500–2000 cells/well) overnight and then treated with curcumin and the formulated curcumin respectively for 0, 24, 48, 72, 96 and 120 h. After treatment, […] 3-(4,5-cimethylthiazol-2-yl)-2,5-diphenyl tetrazolium bromide (MTT) was added to each well and cultured for 2 h at 37 °C. After incubation, the media were removed from the wells. The formazan crystals formed were then solubilized in DMSO at room temperature for 10 minutes, and then the absorbance was measured in a multimode microplate reader at 570 nm.

PLC5 cells = test: MTT viability assay, PLC5; type: cell-based; details: 72 h (Figure 6C)
Method: as §2

Hep3B cells [4] = test: Cell cycle analysis (PI, flow cytometry), sub-G1 population; type: cell-based, human; details: 48 h, 30 μM conventional curcumin, 10 μM sorafenib
Method: After treatment, the cells were collected by trypsinization and fixed in precooled 70% ethanol overnight. The cells were then incubated with PI in the presence of RNase A. The DNA content was analyzed by a FACSCalibur, and the data were analyzed by Flowjo software. The percentage of cells in the sub-G1 was used to indicate the apoptosis rate.
(§3) formulated curcumin on HCC cell lines. (A) Huh7 cells were treated with various concentrations of
(§4) Cell viability was determined
(§5) cells were examined by flow cytometry.
(§6) were quantified using WinMDI 2.8 software.
(§7) compared to the control group.
(§8) μM of conventional curcumin for 48 h.
(§9) Quantification of cleavage-caspase-3
are representative of three independent experiments.
tetrazolium bromide; SEM, standard error of the mean.

Huh7 cells [5] = test: Annexin V and PI double staining by flow cytometry; type: cell-based, human; details: Huh7, 10–60 μM, 24 h, dose-dependent
Method: The Huh7 were incubated with various concentrations of conventional and formulated curcumin for 24 h. Annexin V/PI staining was performed to quantify cell apoptosis using an Annexin V-fluorescein isothiocyanate (FITC) Apoptosis Detection Kit (BioVision, Inc., Milpitas, CA, USA) according to the manufacturer’s protocol. Annexin V-FITC was then added followed by incubation for 15 minutes in the dark in a 100 µL cell suspension. PI was then spiked into 400 µL Annexin V binding buffer and added immediately to the cell suspension, and subsequently analyzed on a FACScan flow cytometer (BD Biosciences, USA).

caspase-3 [6] = test: Western blot of cleaved caspase-3, Huh7; type: cell-based, human; details: dose-dependent
Method: (§10) The cells were incubated with various treatment (conventional and formulated curcumin or combination of sorafenib and conventional and formulated curcumin), and then collected for western blot. Aliquots of cell lysates containing 20–50 μg of protein were separated by SDS-polyacrylamide gel electrophoresis (SDS-PAGE), transferred onto a polyvinylidene difluoride (PVDF) membrane and detected using specific primary and secondary antibodies. The protein bands were visualized by an enhanced chemiluminescence (ECL) detection kit (Immobilon^TM western, Millipore). The membranes were reprobed for β-actin as a loading control. All western blots were carried out at least three times for each experiment. The data were normalized to β-actin. The following primary antibodies were used: anti-extracellular regulated protein kinases (ERK), anti-caspase-3, anti-poly (ADP-ribose) polymerase (PARP) (all from Cell Signaling Technology) and anti-aurora kinase A (AURKA) (BD Biosciences). All antibodies were used at a 1:1000 dilution.

Huh7 cells [7] = test: JC-1 mitochondrial membrane potential assay; type: cell-based, human; details: Huh7, JC-1, 10, 30, and 60 µM, concentration-dependent
Method: We employed 5, 5’, 6, 6’-tetrachloro-l, 1’, 3, 3’-tetraethylbenzimidazolcarbocyanine iodide (JC-1), which was obtained from Cayman Chemical Co., to analyze the mitochondrial membrane potential. The cells were seeded in 96-well black plates at a density of 7000 cells/well and cultured overnight. After treatment, JC-1 staining solution was added to each well and incubated at 37 °C for 15–30 minutes in the dark. The plates were obtained by centrifuged at 400 × g at room temperature for 5 minutes, and the supernatant was discarded. Then, JC-1 assay buffer was added to each well, followed by centrifugation at 400 × g at room temperature for 5 minutes, after which the supernatant was discarded. Finally, JC-1 assay buffer was added again to each well for fluorescent analysis using a fluorescent plate reader.

ERK = test: Western blot of ERK phosphorylation, Huh7; type: cell-based, human; details: Huh7, 10–60 μM, 48 h
Method: as §10

Aurora-A = test: Western blot of Aurora-A, Huh7; type: cell-based, human; details: Huh7, 0–60 μM, 48 h
Method: as §10

caspase-3 [8] = test: Western blot of cleaved caspase-3, Hep3B; type: cell-based, human; details: 10 μM sorafenib, 30 μM conventional curcumin, 48 h
Method: as §10, §3, §4, §5, §6, §7, §8, §9
(§11) are representative of three independent experiments. […]

LC3-II = test: Western blot of LC3-II, Hep3B; type: cell-based, human; details: 10 μM sorafenib, 30 μM conventional curcumin, 48 h
Method: as §10, §3, §4, §5, §6, §7, §8, §9, §11

Hep3B cells [9] = test: MTT viability assay, Hep3B; type: cell-based, human; details: dose-dependent
Method: as §1
Supplementary Figure 6. Effect of sorafenib with or without curcumin/formulated curcumin on Mahlavu and Hep3B cell viability. (A) Mahlavu and (B) Hep3B cells were treated with […]
(conventional)/formulated curcumin for 48 hours. Percentage of inhibition on Mahlavu and Hep3B cells was measured by MTT assay. Data are presented as means ± SEM. Results are representative of three independent experiments.

[10] = rat plasma, oral, cited from earlier work
[11] = humans; 20 mg of piperine given concomitantly with 2 g of curcumin; cited from earlier work
[12] = rats; piperine given concomitantly with curcumin; cited from earlier work
[13] = 50 mg/kg, n = 5, ref [6] of supplement
[14] = 340 mg/kg, n = 3, ref [5] of supplement
[15] = 500 mg/kg, n = 6, ref [7] of supplement

Compound: COc1cc(/C=C/C(=O)CC(=O)/C=C/c2ccc(O)c(OC)c2)ccc1O [conventional curcumin, curcumin]
- dissolution rate ([1]; 0 minutes): 0.00%
- dissolution rate ([1]; 5 minutes): 9.80%
- dissolution rate ([1]; 10 minutes): 13.60%
- dissolution rate ([1]; 15 minutes): 14.05%
- dissolution rate ([1]; 20 minutes): 17.28%
- dissolution rate ([1]; 30 minutes): 19.41%
- dissolution rate ([1]; 45 minutes): 24.06%
- AUC0-t/Dose [2]: 0.0022 ± 0.0024
- AUC0-t ([2]; male, Sprague Dawley): 1.1 ± 1.2 ng·h/mL
- Cmax ([2]; male, Sprague Dawley): 0.704 ± 0.272 ng/mL
- Tmax ([2]; male, Sprague Dawley): 75 ± 49.8 min
- IC50 (Huh7 cells [3]; Huh-7, 24 h, 24 h (Supplementary Figure S4)): ~90 µM
- IC50 (Huh7 cells [3]; Huh-7, 48 h, 48 h (Supplementary Figure S4)): ~90 µM
- IC50 (Huh7 cells [3]; Huh-7, 72 h, 72 h (Figure 6A)): 53.3 µM
- IC50 (Huh7 cells [3]; Huh-7, 72 h, 72 h (Supplementary Figure S4)): ~60 µM
- IC50 (Huh7 cells [3]; Huh-7, 96 h, 96 h (Supplementary Figure S4)): ~45 µM
- IC50 (Huh7 cells [3]; Huh-7, 120 h, 120 h (Supplementary Figure S4)): ~30 µM
- cell viability (Huh7 cells [3]): inhibited cell viability
- IC50 (Mahlavu cells): 35.4 µM
- IC50 (PLC5 cells): 82.5 µM
- apoptosis rate (sub-G1 population) (Hep3B cells [4]): 13.5%
- percentage of cells undergoing early apoptosis (annexin V+/PI–) and late apoptosis (annexin V+/PI+) (Huh7 cells [5]): increased
- caspase-3 activity (cleaved form) (caspase-3 [6]): increased
- mitochondrial membrane potential (ΔΨm) (Huh7 cells [7]): significantly induced mitochondrial membrane potential breakdown
- ERK phosphorylation (ERK): down-regulation
- level of Aurora-A (Aurora-A): significant decrease
- levels of cleaved caspase-3 proteins (caspase-3 [8]): increased
- LC3-II (LC3-II): significantly induced accumulation
- cell viability (Hep3B cells [9]): inhibited cell viability
- AUC0-t [10, 13]: 8.76 ng·h/mL
- Cmax [10, 13]: 4.07 ± 0.56 ng/mL
- Tmax [10, 13]: 30 min
- AUC0-t [10, 14]: 80 ng·h/mL
- Cmax [10, 14]: 2.39 ± 1.66 ng/mL
- Tmax [10, 14]: 30 min
- AUC0-t [10, 15]: 60 ng·h/mL
- Cmax [10, 15]: 60 ± 10 ng/mL
- Tmax [10, 15]: 42 ± 5.4 min

Compound: O=C(/C=C/C=C/c1ccc2c(c1)OCO2)N1CCCCC1 [piperine]
- increase of serum curcumin [11]: 20 times
- increase of serum curcumin [12]: 1.56 times

Compound: CNC(=O)c1cc(Oc2ccc(NC(=O)Nc3ccc(Cl)c(C(F)(F)F)c3)cc2)ccn1 [sorafenib]
- cell viability (Huh7 cells [3]): inhibited cell viability
- apoptosis rate (sub-G1 population) (Hep3B cells [4]): 10.9%
- levels of cleaved caspase-3 proteins (caspase-3 [8]): increased
- cell viability (Hep3B cells [9]): inhibited cell viability

Reference: PMC6950821, “Bioactivity Evaluation of a Novel Formulated Curcumin” (Nutrients, 2019)
